{"source": "patent US20240110220A1", "about": "“DETECTING BETA-LACTAMASE ENZYME ACTIVITY” (COMMISSARIAT A L'ENERGIE ATOMIQUE ET AUX ENERGIES …, priority 2021, published 2024)", "experiment": "Test strip by competition with hydrolysed cefotaxime added to the sample", "type": "binding", "details": "signal equivalent to the control", "description": "The optimisation of these two parameters was carried out for the five antibodies selected. […] In parallel, hydrolysed cefotaxime was added in order to check that the antibody is indeed specific to the non-hydrolysed form.\nFor all these three parameters, a colour intensity scale was used to evaluate the results obtained on the test strips. This scale was defined from 1 to 10, where each value is characteristic of an increasing signal intensity.\n96-well microplates were used for all these tests. […] Then, a strip composed of a sample paper, a nitrocellulose membrane and an absorbent paper, were deposited in the wells. An incubation of 10 minutes was performed, then the signal intensity was evaluated with the colour intensity scale.\nA control was produced (condition at 0 ng/ml), in order to see the maximum signal that could be obtained on the TL (Table 4).\nBy way of example, other antibodies have been tested. The conditions of use of the antibodies are as follows: Antibody 1, DO0.5, 0.3 mg/ml of BSA-cefotaxime; Antibody 2, DO1, 0.3 mg/ml of BSA-cefotaxime; Antibody 3, DO0.5, 0.1 mg/ml of BSA-cefotaxime; Antibody 4, DO0.5, 0.3 mg/ml of BSA-cefotaxime; Antibody 5, DO0.5, 0.3 mg/ml of BSA-cefotaxime (Table 5).", "data": [{"smiles": "CO/N=C(\\C(=O)N[C@H](C(=O)O)C1NC(C(=O)O)=C(COC(C)=O)CS1)c1csc(N)n1", "note": "(stereo partly shown) [hydrolysed cefotaxime]", "values": [{"measurement": "recognition by the tracer antibody", "result": "not recognised"}]}]}
